These results are taken from PMC13168289, “Potent acridone antimalarial against all three life stages of Plasmodium” (Nature Communications, 2026).

What is called IC50 is the concentration that inhibits the measured activity by half.

Values joined by “and” are separate entries in the source; they are usually repeats but may differ in a detail not shown here. Identical values can stand only once. Like-named read-outs stand apart in the source and are kept apart here.

In experiment [1] the test system is P. cynomolgi hypnozoites and schizonts. Briefly: in vitro liver-stage P. cynomolgi assay in primary rhesus hepatocytes. Type of experiment: cell-based, Plasmodium cynomolgi. As to the method: The liver-stage P. cynomolgi assay was designed to identify anti-hypnozoite drugs utilizing a 384-well in vitro culture system[31],[37]. Briefly, cryopreserved primary simian hepatocytes (donor lots XGB, OQB, and QHO: BioIVT, Inc.) were seeded in collagen-coated 384-well plates and infected with P. cynomolgi bastianellii (B strain) sporozoites dissected from infected Anopheles dirus mosquitoes. Test compounds were solubilized in 100% DMSO and serially diluted 2-fold to generate up to a 12-point dose-response curve, maintaining a final DMSO concentration of 0.1% across all wells. Two distinct treatment modes were evaluated. For the prophylactic assay, to assess the prevention of infection, compound exposure began 1-hour post-infection with daily media changes on Days 1 and 2. For the radical cure assay, to assess activity against established liver forms, drugs were administered daily from Day 4 through Day 7 post-infection. […] For readout on Day 8, plates were fixed and stained via immunofluorescence to visualize parasite forms (hypnozoites and schizonts) and hepatocyte nuclei, and images were acquired using an Operetta CLS high-content imaging system (PerkinElmer). Host hepatocyte viability was measured in parallel to determine compound toxicity. Parasite forms were automatically quantified using Harmony 4.9 software, and percent inhibition and toxicity were calculated relative to in-plate DMSO vehicle controls. IC50 and CC50 (half-maximal cytotoxic concentrations) were determined by fitting dose-response data to a four-parameter logistic (variable slope) model using a custom Python script incorporating a grid search algorithm.

Experiment [2] relates to P. falciparum D6, Dd2, Tm90-C2B, Dd2-D1^I22L, D10yDHODH. Description: microbe, parasite or virus in culture. Type of experiment: cell-based, Plasmodium falciparum. On the procedure:
(§1) Drug susceptibility assays against P. falciparum strains were performed using a SYBR Green based assay. D6 and Dd2 were obtained from MR4. Tm90-C2B was obtained from WRAIR. Dd2-D1^I22L and ELQ-300 were obtained from VAPORHCS. D10yDHODH was obtained as a courtesy from Dr. Akhil Vaidya at Drexel University. P. yoelii ATV^r and ELQ-300^r clones were obtained from VAPORHCS.

In experiment [3] the test system is P. yoelii wild type, ATV^r and ELQ-300^r clones. Briefly: 4-day suppression model with ATV- and ELQ-300-resistant clones. Format: in vivo, P. yoelii in CF1 mice. The following applies: (95% CI).
Source text: Animals were housed at the VAPORHCS in Thoren Maxi-Miser microisolator cages (78 sq. in. floor space) with a maximum density of five females or four males per cage. Cages were maintained on a 12-h light/dark cycle and provided with autoclaved nesting materials (nestlets) for environmental enrichment. All mice had ad libitum access to food and water. Four- to five-week-old female and male outbred CF1 mice (Charles River Laboratories, Raleigh, NC, USA) were randomly assigned to treatment and control groups using a simple randomization procedure (e.g., computer-generated random numbers) to ensure balanced distribution of baseline body weights and starting parasitemia levels across all cohorts. Groups of four mice (n = 4, mean body weight of each group was ~30 g) were infected intravenously with 3.5 × 10^4 P. yoelii (Kenya strain, MRA-428) from a donor animal. Drug administration commenced the day after the animals were inoculated (Day 1). The test drug or the drug combination was dissolved in PEG-400 and administered by oral gavage once daily for 4 successive days in the 4-day suppression model, but only once on Day 1 in the single-dose cure model. Blood was collected via the tail vein with the aid of a syringe needle on Day 5 and then at weekly intervals through Day 28. Blood films were Giemsa-stained and examined microscopically to determine the level of parasitemia. All mice were observed daily to assess clinical signs. Animals with observable parasitemia following the experiments were euthanized; animals cleared of parasitemia from their bloodstream were observed daily with assessment of parasitemia performed weekly until Day 28, at which point, the animal(s) were scored as cured of the infection and then humanely euthanized. All treated mice with a negative smear on Day 28 were considered cured (100% protection).
as §1

In experiment [4] the test system is P. falciparum mutant T111 lines. Briefly: drug susceptibility of T111-selected cyt b mutant lines. Format: cell-based, Plasmodium falciparum. As to the method:
DNA extractions were performed on clonal parasites using the QIAamp DNA extraction kit (QIAGEN Inc, Valencia, CA) or ZYMO Quick gDNA Miniprep kit (Zymo Research Corp, Irvine, CA). For sequencing of the open reading frame of pfcytb, PCR was performed with genomic DNA using forward and reverse flanking primers for cyt b primer 1: 5’-[…]-3’ and primer 2: 5’-[…]-3’. PCR products were subjected to enzymatic cleanup with ExoSAP-IT (Thermo Fisher Scientific) and sent for Sanger sequencing (Eurofins Genomics, Louisville, KY) with PCR primer 2 paired with an internal forward primer: 5’-[…]-3’ and an internal reverse primer: 5’-[…]-3’. Sequences were assembled using 4Peaks software (Nucleobytes, Amsterdam, Netherlands) and aligned with Clustal Omega (EMBL-EBI). For sequencing of the open reading frame of pfdhodh, PCR was performed with genomic DNA using forward primer: 5’-[…]-3’ and reverse primer: 5’-[…]-3’. PCR products were prepared for Sanger sequencing and analyzed as described above, except using two forward primers: 5’-[…]-3’ and 5’-[…]-3’ and with two reverse primers: 5’-[…]-3’ and 5’-[…]-3’.
as §1

The subject of experiment [5] is P. falciparum NF54 gametocytes. Description: sexual blood-stage gametocyte assay. Format: cell-based, Plasmodium falciparum. Conditions: Days 5 to 7, read Day 14. On the procedure: P. falciparum NF54 was used to generate gametocytes. The erythrocytic stage of the parasite was cultured following standard laboratory protocols. Gametocyte production was carried out as described by Miura et al[34]. […] Cultures were maintained in washed human O^+ red blood cells at a final hematocrit of 2%[76]. For gametocyte cultures, parasites were induced using serum-free human media. Gametocyte cultures were maintained in washed human O^+ red blood cells at a final hematocrit of 5%. […] All cultures were maintained at 37 °C in a Billups chamber under a gas mixture of 90% N2, 5% CO2, and 5% O2, with media changes daily. […] DMSO diluted in gametocyte media was used as the control. […] Gametocytemia was assessed on Day 14 post-induction using blood smears stained with the Hema 3^TM Manual Staining System (Fisher) and analyzed by light microscopy.

For the molecule `O=C1C(O)=C([C@H]2CC[C@H](c3ccc(Cl)cc3)CC2)C(=O)c2ccccc21` [ATV, atovaquone], the IC50 is more than 1200 nM in experiment [1] (Plasmodium cynomolgi, Hepatocyte, in Macaca mulatta, prophylactic mode, hypnozoite, read-out: inhibition IC50); 9.3 nM in experiment [1] (Plasmodium cynomolgi, Hepatocyte, in Macaca mulatta, prophylactic mode, schizont, read-out: inhibition IC50); 2460 nM in experiment [1] (Plasmodium cynomolgi, Hepatocyte, in Macaca mulatta, radical cure mode, hypnozoite, read-out: inhibition IC50); 2250 nM in experiment [1] (Plasmodium cynomolgi, Hepatocyte, in Macaca mulatta, radical cure mode, schizont, read-out: inhibition IC50); more than 2000 nM in experiment [1] (Plasmodium cynomolgi, Hepatocyte, in Macaca mulatta, summary in response to reviewers, read-out: IC50 values against hypnozoites); 0.073 ± 0.01 nM in experiment [2] (Plasmodium falciparum, read-out: in vitro IC50 vs P. falciparum, D6). Also, the IC50 in experiment [2] (Plasmodium falciparum, read-out: in vitro IC50 vs P. falciparum, D10yDHODH) is more than 2500 nM; in experiment [2] (Plasmodium falciparum, read-out: in vitro IC50 vs P. falciparum, Dd2) it was 0.13 ± 0.012 nM; in experiment [2] (Plasmodium falciparum, read-out: in vitro IC50 vs P. falciparum, Dd2-D1^I22L (ELQ-300-resistant)), 0.007 ± 0.0025 nM; in experiment [2] (Plasmodium falciparum, read-out: in vitro IC50 vs P. falciparum, Tm90-C2B (cyt b Y268S, ATV-resistant)), 8538 ± 65 nM; in experiment [4] (Plasmodium falciparum, DD2, read-out: inhibition IC50 vs P. falciparum, Dd2), 0.44 ± 0.052 nM; in experiment [4] (Plasmodium falciparum, DD2, read-out: inhibition IC50 vs P. falciparum, Dd2-A^131S-140I-259L), 4.7 ± 0.44 nM. Also, the IC50 in experiment [4] (Plasmodium falciparum, DD2, read-out: inhibition IC50 vs P. falciparum, Dd2-A^131S-140I-259L-264L) was 15 ± 2 nM; in experiment [4] (Plasmodium falciparum, DD2, read-out: inhibition IC50 vs P. falciparum, Dd2-B^87V-131S-140I-259L), 10 ± 1.4 nM; in experiment [4] (Plasmodium falciparum, DD2, read-out: inhibition IC50 vs P. falciparum, Dd2-B^131S-140I-259L-264L), 11 ± 1.8 nM; in experiment [4] (Plasmodium falciparum, DD2, read-out: inhibition IC50 vs P. falciparum, Dd2-C0^119L-131S-259L (pfdhodh mutation)) it was 15 ± 0.46 nM; in experiment [4] (Plasmodium falciparum, DD2, read-out: inhibition IC50 vs P. falciparum, Dd2-C1^131S-140I-259L (pfdhodh mutation)), 25 ± 7.2 nM; in experiment [4] (Plasmodium falciparum, DD2, read-out: inhibition IC50 vs P. falciparum, Dd2^131S), 0.34 ± 0.049 nM. Besides, the IC50 in experiment [4] (Plasmodium falciparum, DD2, read-out: inhibition IC50 vs P. falciparum, Dd2^131S-259L) is 1.5 ± 0.17 nM; in experiment [4] (Plasmodium falciparum, DD2, read-out: inhibition IC50 vs P. falciparum, Dd2^259L), 6.6 ± 1.9 nM. Moreover, the ED50 in experiment [3] (P. yoelii ATVrY268S) is recorded as 15.3 (9.9–24) mg/kg/day; in experiment [3] (P. yoelii ELQ-300rI22L) it was 0.068 (0.053–0.087) mg/kg/day; in experiment [3] (P. yoelii wild type), 0.064 (0.049–0.085) mg/kg/day.

For the molecule `O=c1c2ccc(Oc3ccc(OC(F)(F)F)cc3)cc2[nH]c2cc(Cl)cc(F)c12` [T111], the IC50 in experiment [1] (prophylactic mode, hypnozoite, read-out: inhibition IC50) was 93 nM; in experiment [1] (prophylactic mode, schizont, read-out: inhibition IC50), 18 nM; in experiment [1] (radical cure mode, hypnozoite, read-out: inhibition IC50) it was 500 nM; in experiment [1] (radical cure mode, schizont, read-out: inhibition IC50), 280 nM; in experiment [2] (D6, read-out: in vitro IC50 vs P. falciparum), 0.028 ± 0.00036 nM; in experiment [2] (D10yDHODH, read-out: in vitro IC50 vs P. falciparum) it was more than 2500 nM. The IC50 in experiment [2] (Dd2, read-out: in vitro IC50 vs P. falciparum) worked out at 0.042 ± 0.0042 nM; in experiment [2] (Tm90-C2B (cyt b Y268S, ATV-resistant), read-out: in vitro IC50 vs P. falciparum), 4 ± 0.076 nM; in experiment [4] (Dd2-A^131S-140I-259L-264L, read-out: inhibition IC50 vs P. falciparum), 98 ± 12 nM; in experiment [4] (Dd2-A^131S-140I-259L, read-out: inhibition IC50 vs P. falciparum) it was 74 ± 5.1 nM; in experiment [4] (Dd2-B^87V-131S-140I-259L, read-out: inhibition IC50 vs P. falciparum), 129 ± 6.3 nM; in experiment [4] (Dd2-B^131S-140I-259L-264L, read-out: inhibition IC50 vs P. falciparum), 114 ± 13 nM. Also, the IC50 came to 144 ± 12 nM in experiment [4] (Dd2-C0^119L-131S-259L (pfdhodh mutation), read-out: inhibition IC50 vs P. falciparum); 223 ± 36 nM in experiment [4] (Dd2-C1^131S-140I-259L (pfdhodh mutation), read-out: inhibition IC50 vs P. falciparum); 0.15 ± 0.023 nM in experiment [4] (Dd2, read-out: inhibition IC50 vs P. falciparum); 12 ± 2.5 nM in experiment [4] (Dd2^131S-259L, read-out: inhibition IC50 vs P. falciparum); 0.78 ± 0.081 nM in experiment [4] (Dd2^131S, read-out: inhibition IC50 vs P. falciparum); 4.4 ± 0.71 nM in experiment [4] (Dd2^259L, read-out: inhibition IC50 vs P. falciparum). In experiment [1] (radical cure mode, highest concentrations tested), the “residual population of hypnozoites” value is 10-20%. In addition, the ED50 in experiment [3] (P. yoelii ATVrY268S) was 0.31 (0.29–0.34) mg/kg/day and 0.31 mg/kg/day; in experiment [3] (P. yoelii ELQ-300rI22L), 0.25 (0.21–0.30) mg/kg/day and 0.25 mg/kg/day; in experiment [3] (P. yoelii wild type), 0.24 (0.20–0.29) mg/kg/day and 0.24 mg/kg/day. In addition, the “inhibition of formation of stage V gametocytes” value in experiment [5] (1 µM) came to 75%; in experiment [5] (10 µM), 93%.
